Read-outs that look alike come from different tables or passages of the source.

From patent US20260078130A1, “NAMPT MODULATORS, PREPARATIONS, AND USES THEREOF” (SIRONAX LTD., priority 2022, published 2026) come the findings set out here.

Assay [1] has as its target T1, human enzyme NAMPT (full length) (Homo sapiens, UniProt P43490).
T1 construct: human enzyme NAMPT (full length)
Put plainly: NMN fluorescence biochemical assay (stimulation of NMN synthesis by NAMPT). The conditions noted are these: for EC50: concentration giving half-maximal activation, read-out: Enzymatic EC50; for Enzymatic Emax: fold change of maximal activation compared to DMSO. The procedure, abridged: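 Full-length human NAMPT (100 nM) was preincubated 15 min at 37 °C with compound in 50 mM Tris-HCl pH 7.5, 10 mM MgCl2, 2 mM DTT, then reacted 1 h at 37 °C with 50 μM NAM, 100 μM PRPP, 4 mM ATP (stated solution concentrations). NMN was derivatised with acetophenone/KOH then formic acid and read at Ex/Em 382/445 nm; EC50 and Emax (fold over DMSO) reported.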

The subject of assay [2] is endogenous NAMPT in U2OS cells. The assay can be described thus: Cellular NAD+ modulation assay (NAD/NADH-Glo, U2OS cells). The class given is cell-based. The conditions noted are these: Homo sapiens; for maximal fold induction: read-out: Cellular Emax. The procedure, abridged: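 Endogenous NAMPT stimulation in U2OS cells treated with compound dilution series for 24 h at 37 °C. Cells lysed with DTAB base, acid-treated 15 min at 60 °C, neutralized, NAD+ read by NAD/NADH-Glo luminescence after 40 min at room temperature. EC50 and Emax (fold over DMSO) derived.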

[3] abbreviates: NMN synthesis by purified human NAMPT (100 nM).
Setting [4] is: 24 hours incubation with compound.
The mark [5] stands for this setting: NMN fluorescence assay, purified human NAMPT 100 nM.
The mark [6] stands for this setting: 24 hours incubation, cellular NAD+.

T1 sequence (P43490 whole entry): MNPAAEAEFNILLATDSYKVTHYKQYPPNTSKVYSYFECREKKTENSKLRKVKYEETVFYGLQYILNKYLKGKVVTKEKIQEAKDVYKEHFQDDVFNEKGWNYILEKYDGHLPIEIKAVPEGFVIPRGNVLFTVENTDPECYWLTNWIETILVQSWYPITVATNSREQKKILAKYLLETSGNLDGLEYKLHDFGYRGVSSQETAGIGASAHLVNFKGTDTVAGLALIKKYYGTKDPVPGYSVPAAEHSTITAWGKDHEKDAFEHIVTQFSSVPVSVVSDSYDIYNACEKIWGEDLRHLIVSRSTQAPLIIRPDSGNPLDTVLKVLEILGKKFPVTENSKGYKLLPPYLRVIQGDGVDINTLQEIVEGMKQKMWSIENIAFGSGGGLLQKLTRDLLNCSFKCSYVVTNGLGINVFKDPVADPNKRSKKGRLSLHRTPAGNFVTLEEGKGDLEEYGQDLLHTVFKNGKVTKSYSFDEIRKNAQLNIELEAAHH

Usually EC50 stands for the concentration that produces a half-maximal response. In the case of `Cc1ccc2c(c1)C(=O)N(Cc1ccc(O)cc1)C2=O` [Compound 14, 2-(4-hydroxybenzyl)-5-methylisoindoline-1,3-dione], in assay [1] (setting [3]), the EC50 is 0.5 to 5 µM. The “Enzymatic Emax” value in assay [1] is listed as “B (3≥B>2)”. Moreover, in assay [2] (setting [4]), the EC50 lay within 0.5 to 5 µM and the maximal fold induction is 1.2 to 1.5.
Turning to `COCc1ccc2c(c1)C(Cc1c(Cl)cnn1C)N(Cc1ccc3[nH]nnc3c1)C2=O` (centres unmarked) [Compound 436, 2-((1H-benzo[d][1,2,3]triazol-5-yl)methyl)-3-((4-chloro-1-methyl-1H-pyrazol-5-yl)methyl)-5-(methoxymethyl)isoindolin-1-one], the EC50 in assay [1] (setting [5]) and in assay [2] (setting [6]) was under 0.5 µM throughout. For the same compound, the “Enzymatic Emax” value in assay [1] was “A (A>3)”. In assay [2] (setting [6]), the maximal fold induction is over 1.5.
With `Cc1cccc2c1C(Cc1c(Cl)ccnc1C#N)N(Cc1ccc3[nH]c(=O)oc3c1)C2=O` (centres unmarked) [Compound 272, 4-chloro-3-((7-methyl-3-oxo-2-((2-oxo-2,3-dihydrobenzo[d]oxazol-6-yl)methyl)isoindolin-1-yl)methyl)picolinonitrile], in assay [1] (setting [3]), the EC50 lay within 0.5 to 5 µM. In addition, the “Enzymatic Emax” value in assay [1] is “A (A>3)”. In assay [2] (setting [4]), the EC50 is under 0.5 µM and the maximal fold induction was over 1.5.
Take `Cc1c(CN2C(=O)c3ccccc3C2Cc2ncccc2Br)ccc2[nH]c(=O)oc12` (centres unmarked) [Compound 349, 6-((1-((3-bromopyridin-2-yl)methyl)-3-oxoisoindolin-2-yl)methyl)-7-methylbenzo[d]oxazol-2(3H)-one]: the EC50 in assay [1] (setting [5]) is 0.5 to 5 µM; in assay [2] (setting [6]), 5 to 50 µM. Also, the “Enzymatic Emax” value in assay [1] is reported as “A (A>3)”. In addition, in assay [2] (setting [6]), the maximal fold induction was over 1.5.
`Cn1c2ccccc2c(=O)n1Cc1ccc2[nH]nnc2c1` [Compound 301, 2-((1H-benzo[d][1,2,3]triazol-5-yl)methyl)-1-methyl-1,2-dihydro-3H-indazol-3-one]: the EC50 in assay [1] (setting [3]) is at least 5 µM. Further, the “Enzymatic Emax” value in assay [1] is on record as “C (2≥C)”. In assay [2] (setting [4]), the EC50 was in the range of 5 to 50 µM and the maximal fold induction lay in the range of 1.2 to 1.5.
As to `Cc1ccnc(C#N)c1CC1c2cc(C#N)ccc2C(=O)N1Cc1ccc2[nH]nnc2c1` (centres unmarked) [Compound 359, 2-((1H-benzo[d][1,2,3]triazol-5-yl)methyl)-3-((2-cyano-4-methylpyridin-3-yl)methyl)-1-oxoisoindoline-5-carbonitrile], the EC50 in assay [1] (setting [5]) is under 0.5 µM. Further, the “Enzymatic Emax” value in assay [1] is on record as “B (3≥B>2)”. Besides, in assay [2] (setting [6]), the EC50 lay in the range of 0.5 to 5 µM and the maximal fold induction was over 1.5.
Regarding `Cn1ncc(Cl)c1CC1c2cc(Cl)cc(F)c2C(=O)N1CC1CC2(CNC(=O)O2)C1` (centres unmarked) [Compound 510, 2-((6-chloro-1-((4-chloro-1-methyl-1H-pyrazol-5-yl)methyl)-4-fluoro-3-oxoisoindolin-2-yl)methyl)-5-oxa-7-azaspiro[3.4]octan-6-one], the EC50 in assay [1] (setting [5]) and in assay [2] (setting [6]) was under 0.5 µM each time. The “Enzymatic Emax” value in assay [1] is on record as “A (A>3)”. Moreover, the maximal fold induction in assay [2] (setting [6]) is over 1.5.
Regarding `Cn1ncc(Cl)c1CC1c2ccc(F)cc2C(=O)N1Cc1ccc2[nH]nnc2c1` (centres unmarked) [Compound 340, 2-((1H-benzo[d][1,2,3]triazol-5-yl)methyl)-3-((4-chloro-1-methyl-1H-pyrazol-5-yl)methyl)-6-fluoroisoindolin-1-one], in assay [1] (setting [5]), the EC50 is under 0.5 µM. In addition, the “Enzymatic Emax” value in assay [1] is given as “A (A>3)”. In addition, in assay [2] (setting [6]), the EC50 is under 0.5 µM and the maximal fold induction is over 1.5.
As for `C[C@@H]1c2ccccc2C(=O)N1Cc1ccc2[nH]c(=O)oc2c1` [Compound 55, (R)-6-((1-methyl-3-oxoisoindolin-2-yl)methyl)benzo[d]oxazol-2(3H)-one], the EC50 in assay [1] (setting [3]) was at least 5 µM; in assay [2] (setting [4]) it was 5 to 50 µM. Besides, the “Enzymatic Emax” value in assay [1] is given as “B (3≥B>2)”. In addition, the maximal fold induction in assay [2] (setting [4]) was 1.2 to 1.5.
For `O=C1c2ncccc2CN1Cc1ccc(O)cc1` [Compound 40, 6-(4-hydroxybenzyl)-5,6-dihydro-7H-pyrrolo[3,4-b]pyridin-7-one] the same measures were at least 5 µM, 5 to 50 µM, “B (3≥B>2)” and 1.2 to 1.5.
Take `COc1ccc(CN2C(=O)c3ccccc3C2Cc2c(C)ncnc2C#N)cn1` (centres unmarked) [Compound 595, 5-((2-((6-methoxypyridin-3-yl)methyl)-3-oxoisoindolin-1-yl)methyl)-6-methylpyrimidine-4-carbonitrile]: the EC50 in assay [1] (setting [5]) and in assay [2] (setting [6]) was 0.5 to 5 µM each time. Moreover, in assay [1], the “Enzymatic Emax” value is reported as “B (3≥B>2)”. Further, the maximal fold induction in assay [2] (setting [6]) was over 1.5.
For `NC(=O)C1CC(CN2C(=O)c3ccccc3C2Cc2ncccc2Br)C1` (centres unmarked) [Compound 404, 3-((1-((3-bromopyridin-2-yl)methyl)-3-oxoisoindolin-2-yl)methyl)cyclobutane-1-carboxamide], the EC50 in assay [1] (setting [5]) and in assay [2] (setting [6]) was under 0.5 µM each time. The “Enzymatic Emax” value in assay [1] is reported as “B (3≥B>2)”. The maximal fold induction in assay [2] (setting [6]) was over 1.5.
Regarding `Cc1ccnc(C#N)c1CC1c2cccc(F)c2C(=O)N1Cc1ccc2[nH]nnc2c1` (centres unmarked) [Compound 356, 3-((2-((1H-benzo[d][1,2,3]triazol-5-yl)methyl)-4-fluoro-3-oxoisoindolin-1-yl)methyl)-4-methylpicolinonitrile], the EC50 in assay [1] (setting [5]) and in assay [2] (setting [6]) was under 0.5 µM in each case. Moreover, in assay [1], the “Enzymatic Emax” value was “A (A>3)”. In addition, the maximal fold induction in assay [2] (setting [6]) is over 1.5.
`Cc1ccnc(C#N)c1CC1c2cccc(F)c2C(=O)N1CC1CC2(CNC(=O)O2)C1` (centres unmarked) [Compound 428, 3-((4-fluoro-3-oxo-2-((6-oxo-5-oxa-7-azaspiro[3.4]octan-2-yl)methyl)isoindolin-1-yl)methyl)-4-methylpicolinonitrile]: the EC50 in assay [1] (setting [5]) lay within 0.5 to 5 µM. The “Enzymatic Emax” value in assay [1] is “B (3≥B>2)”. Further, in assay [2] (setting [6]), the EC50 was under 0.5 µM and the maximal fold induction was over 1.5.
Consider `N#Cc1cccc(Br)c1CC1c2ccccc2C(=O)N1Cc1ccc2[nH]c(=O)oc2c1` (centres unmarked) [Compound 200, 3-bromo-2-((3-oxo-2-((2-oxo-2,3-dihydrobenzo[d]oxazol-6-yl)methyl)isoindolin-1-yl)methyl)benzonitrile], for which the EC50 in assay [1] (setting [3]) and in assay [2] (setting [4]) was under 0.5 µM each time. Also, in assay [1], the “Enzymatic Emax” value was “B (3≥B>2)”. In addition, the maximal fold induction in assay [2] (setting [4]) was over 1.5.
`N#Cc1ccc(CC2c3ccccc3C(=O)N2Cc2ccc3[nH]c(=O)oc3c2)c(F)c1` (centres unmarked) [Compound 199, 3-fluoro-4-((3-oxo-2-((2-oxo-2,3-dihydrobenzo[d]oxazol-6-yl)methyl)isoindolin-1-yl)methyl)benzonitrile]: in assay [1] (setting [3]), the EC50 was under 0.5 µM. Moreover, the “Enzymatic Emax” value in assay [1] is “A (A>3)”. Also, in assay [2] (setting [4]), the EC50 was under 0.5 µM and the maximal fold induction is over 1.5.
On to `COc1ccc(CN2C(=O)c3ccccc3C2(C)Cc2c(Cl)cnn2C)cn1` (centres unmarked) [Compound 620, 3-((4-chloro-1-methyl-1H-pyrazol-5-yl)methyl)-2-((6-methoxypyridin-3-yl)methyl)-3-methylisoindolin-1-one], for which, in assay [1] (setting [5]), the EC50 is at least 5 µM. The “Enzymatic Emax” value in assay [1] is “B (3≥B>2)”. For the same compound, in assay [2] (setting [6]), the EC50 fell in the range of 0.5 to 5 µM and the maximal fold induction is 1.2 to 1.5.
